In patent publication US20240228488A1 (TAKEDA PHARMACEUTICAL COMPANY LIMITED, priority 2021, published 2024):

Experiments:
[1] = biological target: human activated kallikrein enzyme (Homo sapiens, UniProt P03952); test: Plasma kallikrein inhibition, fluorogenic PFR-AMC substrate, 500 pM activated kallikrein format; assay type: biochemical; settings: 500 pM activated kallikrein, 300 uM PFR-AMC, 30 min preincubation, 10 min reaction; read-out: Primary Dose Response Assay: Average EC50
How it was run: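 Enzyme at 500 pM preincubated 30 min RT with inhibitors in 20 mM Tris pH 7.5, 1 mM EDTA, 150 mM NaCl, 0.1% PEG-400, 0.1% Triton X-100. Reaction started with 300 uM PFR-AMC, run 10 min RT; fluorescence read at 460 nm emission, 380 nm excitation. EC50 reported in ranges.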

plasma kallikrein = biological target: T1, plasma kallikrein (Homo sapiens, UniProt P03952); test: Neat human plasma assay, FXIIa contact pathway-activated, PFR-AMC substrate; assay type: biochemical; settings: citrated human plasma 78% final, 10 nM human FXIIa, 100 μM PFR-AMC; read-out: Human Plasma Assay: IC90
T1 construct: from tissue
How it was run: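 Citrated human plasma (78% final) with compound, contact-activated by 10 nM human FXIIa in pKal buffer pH 7.5, with 100 μM PFR-AMC. Fluorescence (360/480 nm) followed 5 min at room temperature; rates versus concentration fitted by 4-parameter equation for IC50/IC90.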

T1 sequence (P03952 391-638 limits assumed): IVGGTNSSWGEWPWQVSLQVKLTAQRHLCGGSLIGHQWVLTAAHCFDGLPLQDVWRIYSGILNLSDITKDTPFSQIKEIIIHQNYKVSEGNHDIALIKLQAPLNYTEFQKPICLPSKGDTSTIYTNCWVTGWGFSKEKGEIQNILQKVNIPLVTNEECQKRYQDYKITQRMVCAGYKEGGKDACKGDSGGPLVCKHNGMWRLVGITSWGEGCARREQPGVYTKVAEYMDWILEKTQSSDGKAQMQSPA
T1 sequence (P03952 20-390 partner limits assumed): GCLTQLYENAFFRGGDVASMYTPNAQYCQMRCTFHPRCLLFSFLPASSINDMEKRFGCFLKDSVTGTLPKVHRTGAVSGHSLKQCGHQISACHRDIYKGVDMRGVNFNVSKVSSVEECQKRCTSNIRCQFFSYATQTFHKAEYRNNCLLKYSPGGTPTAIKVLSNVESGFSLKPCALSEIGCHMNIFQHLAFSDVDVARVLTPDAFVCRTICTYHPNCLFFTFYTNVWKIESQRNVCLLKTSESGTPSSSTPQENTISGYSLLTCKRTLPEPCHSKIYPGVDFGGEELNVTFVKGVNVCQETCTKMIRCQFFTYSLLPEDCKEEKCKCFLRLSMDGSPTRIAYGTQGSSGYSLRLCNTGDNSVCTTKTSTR
human activated kallikrein enzyme, sequence (P03952 391-638 limits assumed): as the sequence (P03952 391-638 limits assumed) above
human activated kallikrein enzyme, sequence (P03952 20-390 partner limits assumed): as the sequence (P03952 20-390 partner limits assumed) above

Row | Structure (SMILES) | EC50 [1] | IC90 (plasma kallikrein)
1 | Cc1ccnc([C@H]2C[C@@H]2C(=O)Nc2cc(NCc3cn4cc(C5CC5)ccc4n3)ncn2)n1 [Example 381, (1S,2S)-N-(6-(((6-cyclopropylimidazo[1,2-a]pyridin-2-yl)methyl)amino)pyrimidin-4-yl)-2-(4-methylpyrimidin-2-yl)cyclopropane-1-carboxamide] | < 1 nM | 10000 to 48000 nM
2 | O=C(Nc1cc(NCc2cn3cc(C4CC4)ccc3n2)ccn1)[C@H]1C[C@@H]1c1cc(Cl)cs1 (racemic) [Example I-219, rac-(1S*,2S*)-2-(4-chlorothiophen-2-yl)-N-(4-(((6-cyclopropylimidazo[1,2-a]pyridin-2-yl)methyl)amino)pyridin-2-yl)cyclopropane-1-carboxamide] | 1 to 10 nM | 10000 to 48000 nM
3 | CN1C(=O)CN(c2cc(C3CC3)cn3cc(CNc4cc(NC(=O)[C@H]5C[C@@H]5c5nc(Cl)ccc5C#N)ncn4)nc23)C1=O (racemic) [Example I-167, rac-(1S*,2S*)-2-(6-chloro-3-cyanopyridin-2-yl)-N-(6-(((6-cyclopropyl-8-(3-methyl-2,4-dioxoimidazolidin-1-yl)imidazo[1,2-a]pyridin-2-yl)methyl)amino)pyrimidin-4-yl)cyclopropane-1-carboxamide] | < 1 nM | 400 to 1500 nM
4 | COCc1cnc(NC(=O)[C@H]2C[C@@H]2c2nccc(C)n2)nc1NCc1cn2cc(C3CC3)cc(N3CC(=O)N(C)C3=O)c2n1 (racemic) [Example 621, rac-(1S*,2S*)—N-(4-(((6-cyclopropyl-8-(3-methyl-2,4-dioxoimidazolidin-1-yl)imidazo[1,2-a]pyridin-2-yl)methyl)amino)-5-(methoxymethyl)pyrimidin-2-yl)-2-(4-methylpyrimidin-2-yl)cyclopropane-1-carboxamide] | < 1 nM | < 400 nM
5 | Cc1ccc(C#N)c([C@H]2C[C@@H]2C(=O)Nc2cc(NCc3cn4cc(C5CC5)cc(N5CC(=O)N(C)C5=O)c4n3)ncn2)n1 (racemic) [Example I-166, rac-(1S*,2S*)-2-(3-cyano-6-methylpyridin-2-yl)-N-(6-(((6-cyclopropyl-8-(3-methyl-2,4-dioxoimidazolidin-1-yl)imidazo[1,2-a]pyridin-2-yl)methyl)amino)pyrimidin-4-yl)cyclopropane-1-carboxamide] | < 1 nM | 400 to 1500 nM
6 | NCc1cc(C2CC2)cn2cc(CNc3ccnc(NC(=O)[C@H]4C[C@@H]4c4cccc(Cl)c4)c3)nc12 [Example 293, (1S,2S)—N-(4-(((8-(aminomethyl)-6-cyclopropylimidazo[1,2-a]pyridin-2-yl)methyl)amino)pyridin-2-yl)-2-(3-chlorophenyl)cyclopropane-1-carboxamide] | < 1 nM | 1500 to 10000 nM
7 | Cc1ccnc([C@H]2C[C@@H]2C(=O)Nc2cc(N(C)Cc3cn4cc(C5CC5)cc(N5CC(=O)N(CCO)C5=O)c4n3)ncn2)n1 [Example 462, (1S,2S)-N-(6-(((6-cyclopropyl-8-(3-(2-hydroxyethyl)-2,4-dioxoimidazolidin-1-yl)imidazo[1,2-a]pyridin-2-yl)methyl)(methyl)amino)pyrimidin-4-yl)-2-(4-methylpyrimidin-2-yl)cyclopropane-1-carboxamide] | < 1 nM | < 400 nM
8 | O=C(Nc1cc(NCc2cn3cc(C4CC4)ccc3n2)ccn1)[C@@]1(F)C[C@@H]1c1cccc(Cl)c1 (racemic) [Example I-217, rac-(1S*,2S*)-2-(3-chlorophenyl)-N-(4-(((6-cyclopropylimidazo[1,2-a]pyridin-2-yl)methyl)amino)pyridin-2-yl)-1-fluorocyclopropane-1-carboxamide] | 1 to 10 nM | 10000 to 48000 nM
9 | Cc1ccnc([C@H]2C[C@@H]2C(=O)Nc2cc(N(C)Cc3cn4cc(C5CC5)cc(N5CC(=O)N(CCO)C5=O)c4n3)cc(C3CC3)n2)n1 [Example I-637, (1S,2S)—N-(6-cyclopropyl-4-(((6-cyclopropyl-8-(3-(2-hydroxyethyl)-2,4-dioxoimidazolidin-1-yl)imidazo[1,2-a]pyridin-2-yl)methyl)(methyl)amino)pyridin-2-yl)-2-(4-methylpyrimidin-2-yl)cyclopropane-1-carboxamide] | < 1 nM | < 400 nM
10 | Cc1ccnc([C@H]2C[C@@H]2C(=O)Nc2ncc(CO)c(NCc3cn4cc(C5CC5)cc(N5CC(=O)N(C)C5=O)c4n3)n2)n1 (racemic) [Example 627, rac-(1S*,2S*)—N-(4-(((6-cyclopropyl-8-(3-methyl-2,4-dioxoimidazolidin-1-yl)imidazo[1,2-a]pyridin-2-yl)methyl)amino)-5-(hydroxymethyl)pyrimidin-2-yl)-2-(4-methylpyrimidin-2-yl)cyclopropane-1-carboxamide] | < 1 nM | < 400 nM
11 | Cc1ccnc([C@H]2C[C@@H]2C(=O)Nc2cc(N(C)Cc3cn4cc(C5CC5)cc(S(C)(=O)=O)c4n3)nc(C)n2)n1 [Example I-161, (1S,2S)-N-(6-(((6-cyclopropyl-8-(methylsulfonyl)imidazo[1,2-a]pyridin-2-yl)methyl)(methyl)amino)-2-methylpyrimidin-4-yl)-2-(4-methylpyrimidin-2-yl)cyclopropane-1-carboxamide] | < 1 nM | 1500 to 10000 nM

Second part, the compound after the results:

Row | EC50 [1] | IC90 (plasma kallikrein) | Structure (SMILES)
12 | < 1 nM | 1500 to 10000 nM | O=C(Nc1cc(NCc2cn3cc(C4CC4)cc(N4CCNC4=O)c3n2)ncn1)[C@H]1C[C@@H]1c1cccc(Cl)c1 [Example 309, (1S,2S)-2-(3-chlorophenyl)-N-(6-(((6-cyclopropyl-8-(2-oxoimidazolidin-1-yl)imidazo[1,2-a]pyridin-2-yl)methyl)amino)pyrimidin-4-yl)cyclopropane-1-carboxamide]
13 | < 1 nM | 400 to 1500 nM | Cc1ccnc([C@H]2C[C@@H]2C(=O)Nc2cc(N[C@H](C)c3cn4cc(C5CC5)cc(S(C)(=O)=O)c4n3)nc(C)n2)n1 [Example 361, (1S,2S)-N-(6-(((R)-1-(6-cyclopropyl-8-(methylsulfonyl)imidazo[1,2-a]pyridin-2-yl)ethyl)amino)-2-methylpyrimidin-4-yl)-2-(4-methylpyrimidin-2-yl)cyclopropane-1-carboxamide]
14 | < 1 nM | < 400 nM | Cc1ccnc([C@H]2C[C@@H]2C(=O)Nc2cc(NCc3cn4cc(C5CC5)cc(N5CC(=O)N(C)C5=O)c4n3)nc(C)n2)n1 [Example 365, (1S,2S)-N-(6-(((6-cyclopropyl-8-(3-methyl-2,4-dioxoimidazolidin-1-yl)imidazo[1,2-a]pyridin-2-yl)methyl)amino)-2-methylpyrimidin-4-yl)-2-(4-methylpyrimidin-2-yl)cyclopropane-1-carboxamide]
15 | < 1 nM | 400 to 1500 nM | Cc1ccnc([C@@]2(F)C[C@@H]2C(=O)Nc2cc(N(C)Cc3cn4cc(C5CC5)cc(N5CC(=O)N(C)C5=O)c4n3)nc(C)n2)n1 (racemic) [Example 490, rac-(1S*,2S*)-N-(6-(((6-cyclopropyl-8-(3-methyl-2,4-dioxoimidazolidin-1-yl)imidazo[1,2-a]pyridin-2-yl)methyl)(methyl)amino)-2-methylpyrimidin-4-yl)-2-fluoro-2-(4-methylpyrimidin-2-yl)cyclopropane-1-carboxamide]
16 | 1 to 10 nM | 1500 to 10000 nM | CCOC(=O)CCc1cc(C2CC2)cn2cc(CNc3ccnc(NC(=O)[C@H]4C[C@@H]4c4cccc(Cl)c4)c3)nc12 [Example I-240, ethyl 3-(2-(((2-((1S,2S)-2-(3-chlorophenyl)cyclopropane-1-carboxamido)pyridin-4-yl)amino)methyl)-6-cyclopropylimidazo[1,2-a]pyridin-8-yl)propanoate]
